Laboratory results from ChEMBL document CHEMBL1131258, “Synthesis and glutathione S-transferase structure-affinity relationships of nonpeptide and peptidase-stable glutathione analogues” (J Med Chem, 1998).

What follows are compounds tested on glutathione S-transferase (Schistosoma japonicum) (assay: Affinity towards recombinant Glutathione S-transferase (GST) Enzyme; NA indicates No affinity).

Structure (SMILES) | IC50
O=C(O)CCCCCC(CS)CCCCC(=O)O (stereo not given) | Not Active
O=C(O)CCCCCCC(CS)CCCC(=O)O (stereo not given) | Not Active
O=C(O)CCCCC(CS)CCCCC(=O)O | Not Active

Continued, values first:

IC50 | Structure (SMILES)
Not Active | O=C(O)CC/C=C/C(CS)CCCCC(=O)O (stereo not given)
Not Active | O=C(O)CC/C=C/C(CO)CCCCC(=O)O (stereo not given)
